Measured values: patent US20260007601A1, “IONIZABLE CATIONIC LIPID COMPOUND AND COMPOSITION FOR DELIVERING NUCLEIC ACID AND USE THEREOF” (BEIJING YOUCAREKECHUANG PHARMACEUTICAL TECHNOLOGY CO., LTD., priority 2023, published 2026)

Assays:
293T cells [1] = assay: Cell survival rate assay (CCK-8); format: cell-based; details: LNP containing 1.5 μg Fluc-mRNA, 24 hours, CCK-8
Protocol: (§1) Cell recovery and passaging: 293T cells were recovered and cultured in culture dishes to the required cell number.
(§2) Plating: The cells in the culture dish were digested, counted, plated in a 96-well plate at 10,000 cells per well, or in a 12-well plate at 150,000 cells per well, and cultured overnight until the cells adhered to the wall.
(§3) Cell recovery and passage: The method was the same as in Example 3.
(§4) Plating: The method was the same as Example 3.
The LNP formulations containing 1.5 μg Fluc-mRNA (prepared according to Example 4, the LNP formulation carrier components are cationic lipids, neutral lipids, structured lipids and polymer-conjugated lipids at a molar ratio of 49:10:39.5:1.5, wherein the cationic lipids are the cationic lipids listed in Table 1) and the Lipofectamine 3000 formulation were added to the cell culture medium of the 96-well plate, and the culture was continued for 24 hours. Then, 10 μL of CCK-8 solution was added to each well, and the culture plate was incubated in the incubator for 1 hour, and the absorbance at 450 nm was measured by a microplate reader.

293T cells [2] = assay: Fluorescence detection of Fluc-mRNA (cell transfection efficiency of LNP formulations); format: cell-based; details: for Relative light unit (RLU): LNP containing 0.3 μg Fluc-mRNA, 24 hours; for Multiples of values that equivalent to YK-201: RLU of YK-201 / RLU of the named lipid; for Multiples of values that equivalent to YK-202: RLU of YK-202 / RLU of the named lipid; for Multiples of values that equivalent to YK-209: RLU of YK-209 / RLU of the named lipid; for Ratio relative to SM-102: RLU of the named lipid / RLU of SM-102, times that of SM-102
Protocol: as §1, §2, §3, §4
The LNP formulation containing 0.3 μg Fluc-mRNA (prepared according to Example 4, the LNP formulation carrier components were cationic lipids, neutral lipids, structured lipids and polymer-conjugated lipids at a molar ratio of 49:10:39.5:1.5, and the cationic lipids were cationic lipids listed in Table 1) was added to the cell culture medium of a 96-well plate, and cultured for 24 hours. After that, the corresponding reagents were added according to the instructions of the Gaussia Luciferase Assay Kit, and the fluorescence expression intensity of each well was detected by the IVIS fluorescence detection system. This experiment verified the transfection efficiency of the LNP formulation in the cell, and the specific detection results are shown in Tables 6-9.

[3] = Encapsulation rate, drug loading concentration and total RNA concentration detection (RiboGreen); format: physicochemical; details: LNP formulation of the named lipid
Excerpt: Encapsulation rate is a key quality attribute of liposomes. It refers to the percentage of drug content encapsulated in the lipid bilayer to the total amount of drug added, which can reflect the degree of drug encapsulation in liposomes. The Chinese Pharmacopoeia stipulates that the encapsulation rate should usually not be less than 80%.
The drug loading capacity is the ratio of the amount of drug in the liposome to the total amount of drug and carrier in the liposome. The drug loading capacity directly affects the clinical application dose of the drug, so the larger the drug loading capacity, the more it can meet clinical needs. The drug loading concentration is proportional to the drug loading capacity, and the relative proportion of the drug loading concentration can represent the relative proportion of the drug loading capacity. The relative proportion of the total RNA concentration can represent the relative proportion of the amount of mRNA carried by the LNP formulation.
1×TE buffer, 0.1% Triton X-100 buffer, and RiboGreen reagent (1:200) and mRNA standard stock solution were prepared.
An appropriate amount of sample was taken and added to an appropriate amount of 1×TE buffer, which was diluted to a solution containing about 2.8 μg of the test sample per 1 mL. Then the sample was added to a 96-well plate, where 50 μL of the diluted test sample or mRNA standard stock solution was added to each well, and then added with 1×TE buffer and 0.1% Triton X-100 buffer. The samples were incubated at 37° C. for 10 minutes, and 100 μL of RiboGreen reagent (1:200) was added to each well of the 96-well plate. The plate was centrifuged, and read using an ELISA reader, and the data was processed.

[4] = Particle size and polydispersity index (PDI) of nanolipid particles, dynamic light scattering; format: physicochemical; details: LNP formulation prepared from the named cationic lipid, 25° C
Protocol: The particle size and polydispersity index (PDI) were determined by dynamic light scattering method using a Malvern laser particle size analyzer. 10 μL of liposome solution was diluted to 1 mL with RNase-free deionized water and added to a sample pool. Each sample was measured three times. The measurement conditions were: 90° scattering angle, 25° C.

| Structure (SMILES) | Cell survival rate (293T cells [1]) [%] | Relative light unit (RLU) (293T cells [2]) | Multiples of values that equivalent to YK-201 (293T cells [2]) | Multiples of values that equivalent to YK-202 (293T cells [2]) | Multiples of values that equivalent to YK-209 (293T cells [2]) | Ratio relative to SM-102 (293T cells [2]) | Drug loading concentration [3] [µg/mL] | Encapsulation rate [3] [%] | Total RNA concentration [3] [µg/mL] | PDI [4] [%] | Particle size [4] [nm] |
| --- | --- | --- | --- | --- | --- | --- | --- | --- | --- | --- | --- |
| CCCCCCCCC(CCCCCCCC)OC(=O)CCCCCN(CCCCCC(=O)OC(CCCCCCCC)CCCCCCCC)CCN(CCO)CCO [YK-213, bis(heptadecan-9-yl)-6,6-((2-(bis(2-hydroxyethyl)amino)ethyl)azadialkyl)dihexanoate] | 41.44 | 1364505 | 20.87 | 21.95 | 15.43 | 0.82 | 34.70 | 82.0 | 42.34 | 17.6 | 207 |
| CCCCCCC(CCCCCC)CCOC(=O)CCCCCN(CCCCCC(=O)OCCC(CCCCCC)CCCCCC)CCN(C)CCNC [YK-225] | 43.41 | 26145 | 1089.41 | 1145.82 | 805.46 | 0.02 | 38.74 | 98.0 | 39.53 | 19.3 | 222 |
| CCCCCCCCC(CCCCCCCC)COC(=O)CCCCCN(CCCCCC(=O)OCC(CCCCCCCC)CCCCCCCC)CCN(CCO)CCO [YK-212, bis(2-octyldecyl)-6,6-((2-(bis(2-hydroxyethyl)amino)ethyl)azadialkyl)dihexanoate] | 35.26 | 3910590 | 7.28 | 7.66 | 5.39 | 2.35 | 40.25 | 94.4 | 42.62 | 19.2 | 172 |
| CCCCCCCCCCOC(=O)CCCN(CCCCCC(=O)OCC(CCCCCCCC)CCCCCCCC)CCN(C)CCOC [YK-216] | 45.80 | 2280300 | 12.49 | 13.14 | 9.24 | 1.37 | 27.36 | 61.3 | 44.64 | 13.7 | 219 |
| CCCCCCCCCCOC(=O)CCCN(CCCCCC(=O)OCCC(CCCCCC)CCCCCC)C(=O)SCCCN(C)C [YK-220] | 58.99 | 216398 | 131.62 | 138.44 | 97.32 | 0.13 | 25.27 | 57.5 | 43.92 | 26.6 | 221 |
| CCCCCCC(CCCCCC)CCOC(=O)CCCCCN(CCCCCC(=O)OCCC(CCCCCC)CCCCCC)CCN(CCO)CCO [YK-214, bis(3-hexylnonyl)-6,6-((2-(bis(2-hydroxyethyl)amino)ethyl)azadialkyl)dihexanoate] | 25.58 | 4582178 | 6.22 | 6.54 | 4.60 | 2.75 | 38.16 | 96.7 | 39.46 | 31.5 | 203 |
| CCCCCCCCCCOC(=O)CCCN(CCCCCC(=O)OCC(CCCCCCCC)CCCCCCCC)CCN(C)CCNC [YK-221] | 20.95 | 27960 | 1018.69 | 1071.44 | 753.17 | 0.02 | 31.46 | 95.4 | 32.98 | 21.9 | 237 |
| CCCCCCCCC(CCCCCCCC)OC(=O)CCCCCN(CCCCCC(=O)OC(CCCCCCCC)CCCCCCCC)CCN(C)CCO [YK-210, bis(heptadecan-9-yl)-6,6′-((2-(2-hydroxyethyl(methyl)amino)ethyl)azadialkyl)dihexanoate] | 38.38 | 4628355 | 6.15 | 6.47 | 4.55 | 2.78 | 36.50 | 85.6 | 42.62 | 22.9 | 224 |
| CCCCCCCCCCCOC(=O)CCCCCN(CCCCCCCC(=O)OC(CCCCCCC)CCCCCCC)CCN(CC)CCO [YK-205] | 58.92 | 1029168 | 27.68 | 29.11 | 20.46 | 0.62 | 30.02 | 68.4 | 43.92 | 17.7 | 219 |
| CCCCCCCCCCCOC(=O)CCCCCN(CCCCCCCC(=O)OC(CCCCCCCC)CCCCCCCC)CCN(C)CCNC [YK-222] | 33.75 | 606360 | 46.97 | 49.41 | 34.73 | 0.36 | 25.78 | 94.0 | 27.43 | 30.4 | 218 |
